According to ChEMBL document CHEMBL1201862, “PubChem BioAssay data set” (2004):
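Exposure lasted 48 hours, with cells grown in 96-well plates and compounds tested at five concentrations. GI50 marks 50% less growth.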 Activity calls are given as the source filed them. No stated cut-off is given here; in the data, active = GI50 up to about 1.1 µM and inactive = higher. *1 amine or outer side, *2 acyl side, *3 side chain or, on linkers, in order; H or OH if unused. Where a SMILES comes first, the peptide text is derived from it. Bridges are numbered along the chain shown (N, C = ends). [ ]: non-standard residue; d: D form. The star is where a group is joined. X36 = O=C(C(CCCCNO[*:3])N[*:1])[*:2]; Fmoc = O=C(OCC1c2ccccc2-c2ccccc21)*; Boc = CC(C)(C)OC(=O)*

Columns and labels:
Experiment in all cases: growth of human tumour cells (NCI), 48 h
786-0 = system: 786-0
EKVX = system: EKVX
HCC 2998 = system: HCC 2998
HCT-15 = system: HCT-15
HL-60 = system: HL-60
HT-29 = system: HT-29
KM12 = system: KM12
LOX IMVI = system: LOX IMVI
MCF7 = system: MCF7
Malme-3M = system: Malme-3M
NCI-H226 = system: NCI-H226
NCI-H460 = system: NCI-H460
OVCAR-3 = system: OVCAR-3
SK-MEL-2 = system: SK-MEL-2
SNB-75 = system: SNB-75
SR = system: SR
SW-620 = system: SW-620
TK-10 = system: TK-10
U-251 = system: U-251
UACC-257 = system: UACC-257

| Structure (SMILES) | GI50 (786-0) | GI50 (EKVX) | GI50 (HCC 2998) | GI50 (HCT-15) [µM] | GI50 (HL-60) | GI50 (HT-29) | GI50 (KM12) | GI50 (LOX IMVI) | GI50 (MCF7) | GI50 (Malme-3M) | GI50 (NCI-H226) | GI50 (NCI-H460) | GI50 (OVCAR-3) | GI50 (SK-MEL-2) | GI50 (SNB-75) | GI50 (SR) | GI50 (SW-620) | GI50 (TK-10) | GI50 (U-251) | GI50 (UACC-257) |
| --- | --- | --- | --- | --- | --- | --- | --- | --- | --- | --- | --- | --- | --- | --- | --- | --- | --- | --- | --- | --- |
| CCOC(=O)COC1=Nc2cc(OC)c(OC)c3nc(Cl)cc(c23)C1=O | 1.62 µM (inactive) | 0.716 µM (active) | 5.5 µM (inactive) | 2.34 | 0.252 µM (active) | 2.29 µM (inactive) | 14.8 µM (inactive) | 1.98 µM (inactive) | 1.7 µM (inactive) | 1.36 µM (inactive) | 11.1 µM (inactive) | 18.8 µM (inactive) | 1.75 µM (inactive) | 2 µM (inactive) | 2.51 µM (inactive) | 0.94 µM (active) | 2.16 µM (inactive) | 1.96 µM (inactive) | 2.94 µM (inactive) | 1.75 µM (inactive) |
| O=S1(=O)Cc2ccc3c4c2-c2c(ccc5ccc(c-4c25)CS(=O)(=O)C3)C1 | 49.5 µM (inactive) | 89.1 µM (inactive) | > 100 µM (inactive) | 22.9 | 16.3 µM (inactive) | 57 µM (inactive) | 41.9 µM (inactive) | 44.6 µM (inactive) | 92.3 µM (inactive) | > 100 µM (inactive) | > 100 µM (inactive) | 63.2 µM (inactive) | > 100 µM (inactive) | > 100 µM (inactive) | 69.7 µM (inactive) | 10.2 µM (inactive) | 71 µM (inactive) | 79.6 µM (inactive) | > 100 µM (inactive) | > 100 µM (inactive) |
| c1ccc2c(c1)cc1n2CCc2c-1[nH]c1ccccc21 | > 10 µM (inactive) | > 10 µM (inactive) | > 10 µM (inactive) | 5.12 | > 10 µM (inactive) | > 10 µM (inactive) | > 10 µM (inactive) | > 10 µM (inactive) | > 10 µM (inactive) | > 10 µM (inactive) | > 10 µM (inactive) | > 10 µM (inactive) | > 10 µM (inactive) | > 10 µM (inactive) | > 10 µM (inactive) | > 10 µM (inactive) | > 10 µM (inactive) | > 10 µM (inactive) | > 10 µM (inactive) | > 10 µM (inactive) |
| O=C(NC1(C(=O)O)CC1c1ccccc1)c1ccccc1 (stereo not given) | > 100 µM (inactive) | > 100 µM (inactive) | > 100 µM (inactive) | > 100 | > 100 µM (inactive) | > 100 µM (inactive) | > 100 µM (inactive) | > 100 µM (inactive) | > 100 µM (inactive) | > 100 µM (inactive) | > 100 µM (inactive) | > 100 µM (inactive) | > 100 µM (inactive) | > 100 µM (inactive) | > 100 µM (inactive) | > 100 µM (inactive) | > 100 µM (inactive) | > 100 µM (inactive) | > 100 µM (inactive) | > 100 µM (inactive) |
| COC(O)C12OC3CO[Si](C(C)C)(C(C)C)O[Si](C(C)C)(C(C)C)OC3C1Oc1nc(=O)ccn12 (stereo not given) | 15.2 µM (inactive) | 13.6 µM (inactive) | 3.94 µM (inactive) | 16.3 | 3.29 µM (inactive) | 6.73 µM (inactive) | 5.61 µM (inactive) | 12.7 µM (inactive) | 10.5 µM (inactive) | 13.1 µM (inactive) | 17.7 µM (inactive) | 11.3 µM (inactive) | 11.3 µM (inactive) | 12 µM (inactive) | 26.2 µM (inactive) | 1.23 µM (inactive) | > 36.8 µM (inactive) | 14.3 µM (inactive) | > 31.7 µM (inactive) | 11.8 µM (inactive) |
| Nc1ccc2c(SCC(=O)Nc3ccccc3-c3ccccc3NC(=O)CSc3c4ccccc4nc4cc(N)ccc34)c3ccccc3nc2c1 | 25.3 µM (inactive) | 39.6 µM (inactive) | 36.1 µM (inactive) | 31.1 | 3.21 µM (inactive) | 29.6 µM (inactive) | 19.5 µM (inactive) | 22.9 µM (inactive) | 12.4 µM (inactive) | 22.9 µM (inactive) | 29.3 µM (inactive) | 29.2 µM (inactive) | 22.2 µM (inactive) | 25.6 µM (inactive) | 38.5 µM (inactive) | 4.19 µM (inactive) | 29.6 µM (inactive) | 38 µM (inactive) | 22 µM (inactive) | 24.4 µM (inactive) |
| O=C1c2cccc3cccc(c23)C(=O)N1CCCNCCCCNCCCN1C(=O)c2cccc3cccc(c23)C1=O | 0.0311 µM (active) | 0.986 µM (active) | 0.0755 µM (active) | 3.22 | 0.32 µM (active) | 0.0315 µM (active) | 0.108 µM (active) | 0.0229 µM (active) | < 0.0138 µM (active) | 0.144 µM (active) | 0.748 µM (active) | 0.0194 µM (active) | 0.2 µM (active) | 0.521 µM (active) | 0.202 µM (active) | < 0.01 µM (active) | 0.0612 µM (active) | 1.57 µM (inactive) | 0.0402 µM (active) | 0.61 µM (active) |
| C[C@]12CCC(=O)C=C1CC[C@@H]1[C@@H]2CC[C@]2(C)C(=O)/C(=C/c3ccncc3)C[C@@H]12 | 15.1 µM (inactive) | 14.6 µM (inactive) | 16.7 µM (inactive) | 15.3 | 8.51 µM (inactive) | 10.2 µM (inactive) | 13.4 µM (inactive) | 15.7 µM (inactive) | 11.5 µM (inactive) | 15.7 µM (inactive) | 16.9 µM (inactive) | 12.3 µM (inactive) | 13 µM (inactive) | 14.5 µM (inactive) | 19.6 µM (inactive) | 4.75 µM (inactive) | 23.8 µM (inactive) | 18.1 µM (inactive) | 12.4 µM (inactive) | 13.4 µM (inactive) |
| NC(=O)CNC(=O)C1CCCN1C(=O)C1CCCCNOC(=O)CCC(NC(=O)OCC2c3ccccc3-c3ccccc32)C(=O)NC(Cc2c[nH]c3ccccc23)C(=O)N1 (stereo not given) (Fmoc-EW[X36]PG-NH2; ester 1-3; configuration not given here) | > 100 µM (inactive) | > 100 µM (inactive) | > 100 µM (inactive) | > 100 | > 100 µM (inactive) | > 100 µM (inactive) | > 100 µM (inactive) | > 100 µM (inactive) | 47.9 µM (inactive) | > 100 µM (inactive) | > 100 µM (inactive) | > 100 µM (inactive) | > 100 µM (inactive) | > 100 µM (inactive) | > 100 µM (inactive) | > 100 µM (inactive) | > 100 µM (inactive) | > 100 µM (inactive) | > 100 µM (inactive) | > 100 µM (inactive) |
| CC(C)(C)OC(=O)NCCCCC(NC(=O)C(Cc1c[nH]c2ccccc12)NC(=O)OCC1c2ccccc2-c2ccccc21)C(=O)O (stereo not given) (Fmoc-Trp-Lys(Boc)-OH; configuration not given here) | 80 µM (inactive) | > 100 µM (inactive) | 40.6 µM (inactive) | > 100 | 15.5 µM (inactive) | 40.5 µM (inactive) | 47.8 µM (inactive) | 21.6 µM (inactive) | 22.9 µM (inactive) | 47.8 µM (inactive) | 43.7 µM (inactive) | 34.7 µM (inactive) | 18.2 µM (inactive) | 23.1 µM (inactive) | 55 µM (inactive) | 21.9 µM (inactive) | 48.3 µM (inactive) | > 100 µM (inactive) | 17.1 µM (inactive) | 79.3 µM (inactive) |
